{"source": "paper PMC3280276", "about": "(PLoS ONE, 2012)", "test_system": "C-terminal peptide […]", "assay_type": "binding", "data": [{"substance": "saporin", "values": [{"measurement": "interaction with C-terminal peptide […]", "value": "did not observe any measurable interactions"}]}]}
